According to patent US20040006103A1, “Use of chloroquine, hydroxychloroquine and 4 amino-quinolinic derivatives to obtain a drug for the anti retroviral therapy, active towards HIV sensitive strains and towards HIV strains which are resistant to both nucleosidic and non-nucleosidic reverse transcriptase inhibitors and to proteases …” (VALPHARMA S.A., priority 2002, published 2004):
Where two headings read alike, the source gives them in different places.

How the values were obtained:
[1] = test system: HIV-1; details: association hydroxychloroquine (400 mg/day) plus HU plus ddI, 48 weeks, Paton et al. 2002, cited from earlier work
[2] = plasmatic concentrations 7 to 15 microM, prolonged over 18-24 months; Lange (1994); cited from earlier work
[3] = test system: HIV; details: cited from earlier work
[4] = test system: HIV-1; details: Sperber (1993), cited from earlier work
[5] = test system: HIV-1 clinical isolated, characterised by mutations in the RT gene inducing geno-phenotypic resistance to 3TC; assay: p24 production susceptibility test (ACTG protocol), Table 3; assay type: cell-based; details: for EC50: Human immunodeficiency virus 1, PBMC; for S.I. HCQ / Fen. HCQ (fold) / S.I. CQ / Fen. CQ (fold): PBMC; for S.I. HCQ / S.I. CQ: I.C.50/E.C.50; for Fen. HCQ (fold) / Fen. CQ (fold): ratio to HIV-IIIB
Description: For the phenotype of the nucleosidic, non-nucleosidic and proteases inhibitors was utilised a method which consider the use of human PBMC and the protocol standardised by the AIDS Clinical Trials Group, after verifying the genotype by sequence analysis.
In order to assay in vitro the susceptibility to chloroquine and hydroxychloroquine of the viral strains, it was used the protocol of the ACTG which is characterised by the measure, of the production of antigen p24 in strongly infected cells.
The susceptibility of the viral strains to chemotherapics was determined in cell cultures, prepared in 96 wells microplates, using, for the infection, 0.1 MOI.
The supernatant of the infected cultures (either in absence or in presence of different concentrations of chemotherapic) were tested for the production of p24 after 7 days, using an ELISA test which is commercially available.
At the same time non-infected cells were incubated with concentrations of chloroquine and hydroxychloroquine ranging from 0 to 50 uM to evaluate the toxicity of the compound.
After 4 day from the infection, half the cellular medium was replaced with a medium containing the corresponding dilution of chloroquine and hydroxychloroquine. The percentage of inhibition of the HIV replication, induced by chloroquine and hydroxychloroquine, was determined, after 7 day from the infection, comparing the levels of p24 of this cultures and that of the control, infected and not treated with chloroquine and hydroxychloroquine.
Therefore, the E.C.50 of chloroquine and hydroxychloroquine expresses the concentration of chemotherapic that inhibits the 50% of production of p24 and the values were calculated using linear and non linear regression analysis (the significativity for the non linear regression was R^2>0.95).
In the same experimental conditions and in the same day, but with similar concentrations of chloroquine and hydroxychloroquine, it was evaluated the vitality of the infect cell cultures, and this was expressed as I.C.50.
I.C.50 (Inhibitory Concentration) indicates the concentration of the chemotherapic agent inhibiting the vitality of the cell cultures at a rate of 50%, when there is not infection.

[6] = test system: HIV; details: in vitro, cited from earlier work
[7] = test system: HIV; details: 800 mg/day, compared to placebo; Sperber et al. 1997; cited from earlier work
[8] = test system: HIV-1; details: 800 mg/day, 8 weeks, Sperber et al. (1995), cited from earlier work
[9] = test system: HIV; details: continuous cultures of cells from the lymphocyte system; Tsai (1990); cited from earlier work
[10] = Gen. M4IL E44D D67N M184V R211K T215Y
[11] = Gen. M41L D67N V118I M184V T215Y

Q: What does the source list for CCN(CCO)CCCC(C)Nc1ccnc2cc(Cl)ccc12 (centres unmarked) [HCQ, hydroxychloroquine]?
A: decrement of plasmatic HIV-RNA ([1]; 22 patients): 1.3 logs; tolerability [1]: well tolerated; retinopathy [2]: rarely induced retinopathy; negative events ([3]; 16 weeks, hydroxychloroquine 800 mg/day, AZT 500 mg/day): no negative events were observed; patients with an increase of plasmatic viremia ([3]; at the 8th and at the 16th week): nobody; production of infecting viral particles ([4]; CEM cells used as target): almost completely inhibits; inhibition of HIV-1 replication ([4]; PBMC, U-937, CEM): > 75%; toxic effect in cell cultures ([4]; concentration suitable for inhibit viral replication): no toxic effect was found; EC50 ([5]; Gen. M4IL E44D D67N M184V R211K T215Y, read-out: E.C.50 HCQ): 2500 nM; EC50 ([5]; Gen. M41L D67N V118I M184V T215Y, read-out: E.C.50 HCQ): 3200 nM; EC50 ([5]; Gen. M184I, read-out: E.C.50 HCQ): 2800 nM; EC50 ([5]; Gen. M184V, read-out: E.C.50 HCQ): 3000 nM; S.I. HCQ [5, 10]: 3.5; Fen. HCQ (fold) [5, 10]: 1.5X fold; S.I. HCQ [5, 11]: 3.3; Fen. HCQ (fold) [5, 11]: 1.7X fold; S.I. HCQ ([5]; Gen. M184I): 3.4; Fen. HCQ (fold) ([5]; Gen. M184I): 1.2X fold; S.I. HCQ ([5]; Gen. M184V): 3.2; Fen. HCQ (fold) ([5]; Gen. M184V): 1.3X fold; effect on inhibition of the HIV replication when added to ddI plus HU ([6]; Boelaert et al. (1999)): extra effect; effect when added to the association AZT plus HU ([6]; Boelaert et al. (2001)): additional effect; plasmatic HIV-RNA [7]: significant reduction; quantity of HIV-RNA ([8]; asymptomatic HIV-1 positive patients): significantly decreased; negative events [8]: No negative event was observed

Q: With CCN(CC)CCCC(C)Nc1ccnc2cc(Cl)ccc12 (centres unmarked) [CQ, chloroquine] as the compound, how does the EC50 ([5]; Gen. M4IL E44D D67N M184V R211K T215Y, read-out: E.C.50 CQ) read?
A: 3000 nM

Q: And the EC50 ([5]; Gen. M41L D67N V118I M184V T215Y, read-out: E.C.50 CQ)?
A: 3500 nM

Q: And the EC50 ([5]; Gen. M184I, read-out: E.C.50 CQ)?
A: 2500 nM

Q: What about the EC50 ([5]; Gen. M184V, read-out: E.C.50 CQ) of the same compound?
A: 3200 nM

Q: What about the “S.I. CQ” value [5, 10] of the same compound?
A: 3

Q: And the “Fen. CQ (fold)” value [5, 10]?
A: 2.1X fold

Q: And the “S.I. CQ” value [5, 11]?
A: 3.4

Q: What about the “Fen. CQ (fold)” value [5, 11] of the same compound?
A: 1.9X fold

Q: And the “S.I. CQ” value ([5]; Gen. M184I)?
A: 3.6

Q: What about the “Fen. CQ (fold)” value ([5]; Gen. M184I) of the same compound?
A: 1.1X fold

Q: And the “S.I. CQ” value ([5]; Gen. M184V)?
A: 2.5

Q: What about the “Fen. CQ (fold)” value ([5]; Gen. M184V) of the same compound?
A: 1.4X fold

Q: What about the “inhibition of the HIV replicative cycle” value [9] of the same compound?
A: inhibits the HIV replicative cycle
